The target of data set [1] is T1, UGT2B10 (Homo sapiens, UniProt P36537).
T1 construct: recombinant UGT2B10
T1 sequence (P36537 24-528): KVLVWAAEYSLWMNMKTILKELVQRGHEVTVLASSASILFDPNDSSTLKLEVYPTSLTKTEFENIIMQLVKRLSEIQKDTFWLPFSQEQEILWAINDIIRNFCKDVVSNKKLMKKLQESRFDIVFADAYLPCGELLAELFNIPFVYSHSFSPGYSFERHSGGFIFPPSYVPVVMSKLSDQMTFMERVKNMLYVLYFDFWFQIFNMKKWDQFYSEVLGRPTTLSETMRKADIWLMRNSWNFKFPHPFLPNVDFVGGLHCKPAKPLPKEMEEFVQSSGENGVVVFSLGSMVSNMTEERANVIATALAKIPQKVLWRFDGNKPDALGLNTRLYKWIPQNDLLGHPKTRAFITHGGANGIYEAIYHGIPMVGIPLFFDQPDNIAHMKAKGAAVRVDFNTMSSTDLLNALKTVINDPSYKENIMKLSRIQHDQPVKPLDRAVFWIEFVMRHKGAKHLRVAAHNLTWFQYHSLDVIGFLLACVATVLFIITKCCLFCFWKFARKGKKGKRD
In words: inhibition of cotinine N-glucuronidation at […], UHPLC-MS/MS. It is filed as biochemical. Conditions: read-out: % inhibition at 10 μM.

The target of data set [2] is T1, UGT2B10. In words: inhibition of cotinine N-glucuronidation by recombinant enzyme, UHPLC-MS/MS. It is filed as biochemical.
For a further data set, the target named is T2, UGT1A6 (Homo sapiens, UniProt P19224).
T2 construct: recombinant UGT1A6
T2 sequence (P19224 27-532): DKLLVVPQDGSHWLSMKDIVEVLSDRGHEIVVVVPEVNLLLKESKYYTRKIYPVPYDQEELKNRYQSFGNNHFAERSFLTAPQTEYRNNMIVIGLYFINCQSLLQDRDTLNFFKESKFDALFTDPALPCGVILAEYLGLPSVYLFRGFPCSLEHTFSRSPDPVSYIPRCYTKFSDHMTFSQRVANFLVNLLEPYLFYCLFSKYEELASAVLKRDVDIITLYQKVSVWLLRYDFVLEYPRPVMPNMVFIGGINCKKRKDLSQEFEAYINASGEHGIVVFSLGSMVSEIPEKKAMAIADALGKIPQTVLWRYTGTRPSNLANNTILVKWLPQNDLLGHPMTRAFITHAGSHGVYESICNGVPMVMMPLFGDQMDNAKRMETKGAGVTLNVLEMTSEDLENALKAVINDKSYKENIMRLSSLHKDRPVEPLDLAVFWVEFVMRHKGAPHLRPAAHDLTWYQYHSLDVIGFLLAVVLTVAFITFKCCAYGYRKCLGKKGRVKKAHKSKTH
In words: glucuronide formation by recombinant enzyme, UHPLC-MS/MS. It is filed as biochemical.

Substrate in the data set “purified protein”: CN1C(=O)CC[C@H]1c1cccnc1
In words: purified protein. Conditions: UDPGA; MgCl2.

Where two headings read alike, the source gives them in different places.

For orientation: inhibition means the drop in the measured response relative to a control, in per cent. The term IC50 denotes the concentration at which inhibition is half-maximal. Broadly, the Km is the concentration of substrate that gives half-maximal velocity.

As to `CN(C)CCC=C1c2ccccc2CCc2ccccc21` [AMT, amitriptyline], on UGT2B10 [1], the inhibition at 10 µM stood at 97.5%. Regarding `O=C1Nc2ccc(Cl)cc2C(c2ccccc2Cl)=NC1O` (stereo not drawn) [LOR, lorazepam], on UGT2B10 [2], the IC50 amounted to 0.01 µM. For `CC(=O)Nc1ccc(O)cc1` [APAP, acetaminophen], on UGT1A6, the “glucuronide formation by recombinant enzyme, UHPLC-MS/MS” value is “incubations of APAP and MPA with UGT1A6 produced APAP‐glucuronide and MPA‐ß‐D‐glucuronide, respectively”. Consider `COc1c(C)c2c(c(O)c1C/C=C(\C)CCC(=O)O)C(=O)OC2` [MPA, mycophenolic acid], for which, at UGT2B10 [2] (read-out: IC50), the IC50 was 380 µM. Moreover, the “glucuronide formation by recombinant enzyme, UHPLC-MS/MS” value at UGT1A6 was “incubations of APAP and MPA with UGT1A6 produced APAP‐glucuronide and MPA‐ß‐D‐glucuronide, respectively”.

B1: UGT2B10 (Homo sapiens) (protein)
chain: KVLVWAAEYSLWMNMKTILKELVQRGHEVTVLASSASILFDPNDSSTLKLEVYPTSLTKTEFENIIMQLVKRLSEIQKDTFWLPFSQEQEILWAINDIIRNFCKDVVSNKKLMKKLQESRFDIVFADAYLPCGELLAELFNIPFVYSHSFSPGYSFERHSGGFIFPPSYVPVVMSKLSDQMTFMERVKNMLYVLYFDFWFQIFNMKKWDQFYSEVLGRPTTLSETMRKADIWLMRNSWNFKFPHPFLPNVDFVGGLHCKPAKPLPKEMEEFVQSSGENGVVVFSLGSMVSNMTEERANVIATALAKIPQKVLWRFDGNKPDALGLNTRLYKWIPQNDLLGHPKTRAFITHGGANGIYEAIYHGIPMVGIPLFFDQPDNIAHMKAKGAAVRVDFNTMSSTDLLNALKTVINDPSYKENIMKLSRIQHDQPVKPLDRAVFWIEFVMRHKGAKHLRVAAHNLTWFQYHSLDVIGFLLACVATVLFIITKCCLFCFWKFARKGKKGKRD
With B1, in “purified protein”, the Km came out at 4.043 mM.

The record behind these values is publication PMC11605732, “In vitro screening of UGT2B10 in silico prioritized putative ligands from drugs used in the pediatric hematopoietic stem cell transplantation setting” (Pharmacology Research & Perspectives, 2024).
